Assay results reported in PMC11909056, “Investigation of cholinesterase and α-glucosidase enzyme activities, and molecular docking and dft studies for 1,2-disubstituted cyclopentane derivatives with phenyl and benzyl units” (Molecular Diversity, 2024).

Assays:
[1] = target: α-Glucosidase (Saccharomyces cerevisiae, UniProt P53341); assay: α-glucosidase inhibition with p-NPG substrate (Tao et al. method); type: biochemical
Method: Samples were made by dissolving 20 mg in 20 mL (EtOH:H2O). It was initially combined in 5–200 μL of sample with 700 μL of phosphate buffer (0.15 u/mL, pH 7.4) and 20 μL of enzyme solution [31, 32]. After a pre-incubation period of 10 min at 35 °C, 50 μL of p-NPG was added as the reaction began. Additionally, following the pre-incubation, 50 μL of p-NPG in phosphate buffer (5 mM, pH = 7.4) was added, and the incubation was repeated at 35 °C. A curve was fitted to the data to determine the IC50 and Ki values. […] (pH: 7.4).

[2] = target: T1, Butyrylcholinesterase (BChE) (Equus caballus, UniProt P81908); assay: biochemical
T1 construct: Butyrylcholinesterase from equine serum (CAS No.: 9001–08-5); from tissue; host or cells: equine serum
T1 sequence (P81908 whole entry): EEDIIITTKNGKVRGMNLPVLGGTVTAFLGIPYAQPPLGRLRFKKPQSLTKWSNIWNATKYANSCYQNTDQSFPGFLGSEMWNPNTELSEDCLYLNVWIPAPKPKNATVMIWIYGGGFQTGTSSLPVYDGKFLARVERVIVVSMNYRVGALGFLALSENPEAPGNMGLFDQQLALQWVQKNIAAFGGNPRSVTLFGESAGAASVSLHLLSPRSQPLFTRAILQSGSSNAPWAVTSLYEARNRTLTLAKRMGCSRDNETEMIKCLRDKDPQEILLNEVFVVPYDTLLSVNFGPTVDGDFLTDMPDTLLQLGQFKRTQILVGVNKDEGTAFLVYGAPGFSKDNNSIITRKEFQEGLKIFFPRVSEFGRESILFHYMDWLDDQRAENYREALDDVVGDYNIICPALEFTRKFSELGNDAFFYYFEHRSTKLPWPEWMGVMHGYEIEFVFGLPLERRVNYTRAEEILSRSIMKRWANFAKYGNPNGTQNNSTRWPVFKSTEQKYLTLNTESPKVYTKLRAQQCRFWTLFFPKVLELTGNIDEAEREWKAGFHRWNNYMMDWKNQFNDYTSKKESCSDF
Method: (§1) The Ellman approach was employed to examine the impact of synthetic chemicals on the ability to inhibit AChE and BChE activity. AChI/BChI and DTNB were used to quantify the AChE/BChE activity. […] For different concentrations of the sample solution, 100 μL of buffer (1 M, Tris/HCl, pH 8.0) were used to dissolve 10 μL of the sample solution. […] The incubation was followed by the addition of DTNB (50 μL, 0.5 mM). Lastly, to start the reaction, 50 μL of bChI/aChI were added. […] Then, the activities of AChE/BChE were evaluated.

[3] = target: Acetylcholinesterase (AChE) (Electrophorus electricus, UniProt O42275); assay: biochemical
Chain of Acetylcholinesterase (AChE) (O42275 24-633): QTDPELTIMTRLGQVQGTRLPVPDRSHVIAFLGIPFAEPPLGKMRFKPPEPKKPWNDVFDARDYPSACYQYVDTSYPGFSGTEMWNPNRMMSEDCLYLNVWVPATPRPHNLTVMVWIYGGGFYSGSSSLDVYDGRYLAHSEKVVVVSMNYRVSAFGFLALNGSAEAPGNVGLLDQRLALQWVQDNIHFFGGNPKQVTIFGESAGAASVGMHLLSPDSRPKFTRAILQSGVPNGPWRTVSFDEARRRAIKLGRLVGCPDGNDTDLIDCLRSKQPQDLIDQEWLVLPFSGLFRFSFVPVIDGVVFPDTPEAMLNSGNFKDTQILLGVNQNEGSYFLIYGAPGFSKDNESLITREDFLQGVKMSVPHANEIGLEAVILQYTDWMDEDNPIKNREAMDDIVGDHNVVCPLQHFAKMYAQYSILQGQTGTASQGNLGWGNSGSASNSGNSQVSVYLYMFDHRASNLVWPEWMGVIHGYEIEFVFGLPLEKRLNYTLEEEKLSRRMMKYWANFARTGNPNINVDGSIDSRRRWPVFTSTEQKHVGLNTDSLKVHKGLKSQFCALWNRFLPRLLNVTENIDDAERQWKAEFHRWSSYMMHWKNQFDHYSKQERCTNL
Method: as §1

Chain of α-Glucosidase (P53341 whole entry): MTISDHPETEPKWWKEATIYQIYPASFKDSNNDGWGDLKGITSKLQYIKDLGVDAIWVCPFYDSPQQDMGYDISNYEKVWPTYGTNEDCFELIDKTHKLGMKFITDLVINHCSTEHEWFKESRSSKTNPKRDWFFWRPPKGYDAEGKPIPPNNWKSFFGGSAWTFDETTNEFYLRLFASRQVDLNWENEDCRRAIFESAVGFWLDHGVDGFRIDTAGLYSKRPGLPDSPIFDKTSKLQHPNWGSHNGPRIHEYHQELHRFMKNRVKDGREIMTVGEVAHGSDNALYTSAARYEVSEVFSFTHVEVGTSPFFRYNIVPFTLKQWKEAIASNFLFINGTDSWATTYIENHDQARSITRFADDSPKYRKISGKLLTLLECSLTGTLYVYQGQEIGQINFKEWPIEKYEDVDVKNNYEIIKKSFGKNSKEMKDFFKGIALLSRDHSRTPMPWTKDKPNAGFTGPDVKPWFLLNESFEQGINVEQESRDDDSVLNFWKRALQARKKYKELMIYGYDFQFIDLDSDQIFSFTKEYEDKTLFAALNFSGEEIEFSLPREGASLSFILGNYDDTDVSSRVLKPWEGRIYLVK

## COc1ccc(C(=O)C2=C(c3ccc(OC)c(OC)c3OC)CCC2)c(OC)c1OC [Compound 4, (2,3,4-trimethoxyphenyl)(2-(2,3,4-trimethoxyphenyl)cyclopent-1-en-1-yl)methanone]
[1]
  IC50: 41.6 nM
  Ki: 48.9 ± 7.33 nM
[2]
  IC50: 414 nM
  Ki: 403 ± 32.3 nM
[3]
  IC50: 102 nM
  Ki: 99.7 ± 11.4 nM

## COc1ccc(C(=O)C2CCC=C2c2ccc(OC)c(OC)c2OC)c(OC)c1OC (stereo not drawn) [Compound 5]
[1]
  IC50: 39.6 nM
  Ki: 44.7 ± 6.61 nM
[2]
  IC50: 187 nM
  Ki: 176 ± 23.8 nM
[3]
  IC50: 92.2 nM
  Ki: 87.9 ± 7.27 nM

## COc1ccc(C(=O)CCCCC(=O)c2ccc(OC)c(OC)c2OC)c(OC)c1OC [Compound 6]
[1]
  IC50: 27.2 nM
  Ki: 29.1 ± 4.25 nM
[2]
  IC50: 225 nM
  Ki: 212 ± 13.7 nM
[3]
  IC50: 189 nM
  Ki: 177 ± 22.6 nM

## COc1ccc(C(=O)CCCCC(=O)c2ccc(OC)c(OC)c2OC)c(O)c1OC [Compound 7]
[1]
  IC50: 43.2 nM
  Ki: 46.5 ± 6.34 nM
[2]
  IC50: 646 nM
  Ki: 622 ± 35.1 nM
[3]
  IC50: 644 nM
  Ki: 632 ± 18.9 nM

## COc1ccc(C(=O)CCCCC(=O)c2ccc(OC)c(OC)c2O)c(O)c1OC [Compound 8]
[1]
  IC50: 36.4 nM
  Ki: 38.5 ± 4.25 nM
[2]
  IC50: 222 nM
  Ki: 209 ± 14.7 nM
[3]
  IC50: 174 nM
  Ki: 171 ± 14.1 nM

## COc1c(Br)cc(C(=O)C(Br)CCC(Br)C(=O)c2cc(Br)c(OC)c(OC)c2O)c(O)c1OC (stereo not drawn) [Compound 9]
[1]
  IC50: 21.1 nM
  Ki: 25.5 ± 4.46 nM
[2]
  IC50: 450 nM
  Ki: 428 ± 27.4 nM
[3]
  IC50: 49.8 nM
  Ki: 45.5 ± 7.35 nM

## COc1ccc(C2=C(/C(=N/NC(C)=O)c3ccc(OC)c(OC)c3OC)CCC2)c(OC)c1OC [Compound 10, (Z)-N'-((2,3,4-Trimethoxyphenyl)(2-(2,3,4-trimethoxyphenyl)cyclopent-1-en-1-yl)methylene)acetohydrazide]
[1]
  IC50: 28.4 nM
  Ki: 31.2 ± 5.54 nM
[2]
  IC50: 135 nM
  Ki: 131 ± 14.5 nM
[3]
  IC50: 205 nM
  Ki: 196 ± 13.7 nM

## COc1ccc(CC2CCCC2c2ccc(OC)c(OC)c2OC)c(OC)c1OC (stereo not drawn) [Compound 11, 1,2,3-Trimethoxy-4-(2-(2,3,4-trimethoxybenzyl)cyclopentyl)benzene]
[1]
  IC50: 33.4 nM
  Ki: 38.1 ± 5.48 nM
[2]
  IC50: 155 nM
  Ki: 145 ± 15.5 nM
[3]
  IC50: 170 nM
  Ki: 151 ± 13.3 nM

## COc1c(Br)c(Br)c(CC2CCCC2c2c(Br)c(Br)c(OC)c(OC)c2OC)c(OC)c1OC (stereo not drawn) [Compound 12, 1,2-Dibromo-3-(2-(2,3-dibromo-4,5,6-trimethoxybenzyl)cyclopentyl)-4,5,6-trimethoxybenzene]
[1]
  IC50: 23.9 nM
  Ki: 27.4 ± 5.17 nM
[2]
  IC50: 92.7 nM
  Ki: 84.3 ± 9.92 nM
[3]
  IC50: 65.5 nM
  Ki: 61.1 ± 5.26 nM

## COc1c(Br)cc(C2CCCC2Cc2c(Br)c(Br)c(OC)c(OC)c2OC)c(OC)c1OC (stereo not drawn) [Compound 13, 1,2-Dibromo-3-((2-(5-bromo-2,3,4-trimethoxyphenyl)cyclopentyl)methyl)-4,5,6-trimethoxybenzene]
[1]
  IC50: 31.6 nM
  Ki: 35.6 ± 3.95 nM
[2]
  IC50: 217 nM
  Ki: 205 ± 17.4 nM
[3]
  IC50: 124 nM
  Ki: 108 ± 5.14 nM
